These are literature values, as cited in patent publication US6303630A, “Diarylsulfone non-nucleoside reverse transcriptase inhibitors of human immunodeficiency virus” (University of the Sciences in Philadelphia, priority 2000, dated 2001).

Series [1] concerns HIV-1. The settings on record: Artico et al. 1995; cited from earlier work.
Series [2] relates to HIV-1 reverse transcriptase. The settings on record: McMahon et al. 1993; cited from earlier work.
For series [3], the system named is HIV-1. The settings on record: in vitro, McMahon et al. 1993; cited from earlier work.

On to `CCOC(=O)c1cccn1S(=O)(=O)c1ccccc1[N+](=O)[O-]`, for which, in series [1], the anti-HIV-1 efficacy entry is recorded as “the most efficacy”.
In the case of `O=[N+]([O-])c1ccccc1S(=O)(=O)c1ccccc1` [2-nitrophenyl phenylsulfone], in series [2], the “inhibition of HIV-1 replication via inhibition of HIV-1 reverse transcriptase” value is recorded as “inhibition of HIV-1 replication via inhibition of HIV-1 reverse transcriptase”. Further, the “protecting human cells in culture from HIV-1 cytopathic effects / preventing HIV-1 replication” value in series [3] is reported as “high efficacy”.
